Values quoted from earlier work as cited in patent US8338423B2, “Compositions for the treatment of hyperphenylalaninemia” (Universidad de Zaragoza, priority 2007, dated 2012).

Molecular target: T1, wt-PAH (Homo sapiens, UniProt P00439)
T1 construct: made in house; host or cells: E. coli
T1 sequence (P00439 1-452): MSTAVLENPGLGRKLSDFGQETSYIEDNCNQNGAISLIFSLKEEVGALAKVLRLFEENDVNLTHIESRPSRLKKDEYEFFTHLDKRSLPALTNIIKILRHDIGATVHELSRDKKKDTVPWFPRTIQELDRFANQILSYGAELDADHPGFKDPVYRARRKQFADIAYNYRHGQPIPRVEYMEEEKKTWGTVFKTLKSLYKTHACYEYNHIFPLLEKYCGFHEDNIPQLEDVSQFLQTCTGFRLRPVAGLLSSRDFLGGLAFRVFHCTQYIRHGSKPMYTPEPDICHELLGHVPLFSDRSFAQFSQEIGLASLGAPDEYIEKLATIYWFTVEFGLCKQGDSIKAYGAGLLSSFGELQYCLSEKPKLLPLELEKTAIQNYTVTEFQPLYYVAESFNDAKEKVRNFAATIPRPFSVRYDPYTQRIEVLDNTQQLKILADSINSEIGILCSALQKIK
Settings: comparison values; read-out: Kl of likely physiological inhibitors of PAH; cited from earlier work

For `CC(O)C(O)C1CNc2c(nc(N)[nH]c2=O)N1` (stereo not drawn) [Compound 7S-BH4], the Ki is listed as 2 to 5 µM.

For `C[C@H](O)[C@H](O)C1=Nc2c(nc(N)[nH]c2=O)NC1` [BH2], the Ki is given as ~17 µM.
